Data from patent US20170165282A1, “USE OF BETA-NICOTINAMIDE MONONUCLEOTIDE IN PREPARATION OF DRUGS FOR PREVENTING AND TREATING ARTERIOSCLEROSIS AND CARDIO-CEREBROVASCULAR DISEASES, AND DRUGS CONTAINING THE SAME” (BONTAC BIO-ENGINEERING (SHENZHEN) CO., LTD, priority 2015, published 2017).

Columns and labels:
[1] = tested on: arteriosclerosis (lesion of the aorta) in guinea pigs fed on high-fat diet; test: Guinea pig high-fat diet arteriosclerosis model, lesion area of aorta (Sudan IV staining); type: in vivo
Protocol: 80 SPF healthy guinea pigs (female:male 1:1) having a body weight of 250-300 g, were assigned to 8 groups at random, each group having 10 animals. The groups include:
(1) a normal control group, fed on basal diet, and allowed to free access to water during experiment;
(2) a high fat control group, fed on high-fat diet, and allowed to free access to water during experiment;
(3) a high fat prevention group, fed on high-fat diet, dosed with 10 mg NMN/kg body weight by gavage every day, and allowed to free access to water during experiment;
(4) a low-dose NMN group, fed on high-fat diet, dosed with 0.1 mg NMN/kg body weight by gavage every day from week 7, and allowed to free access to water during experiment;
(5) a medium-dose NMN group, fed on high-fat diet, dosed with 10 mg NMN/kg body weight by gavage every day from week 7, and allowed to free access to water during experiment;
(6) a high-dose NMN group, fed on high-fat diet, dosed with 20 mg NMN/kg body weight by gavage every day from week 7, and allowed to free access to water during experiment;
(7) NMN+NR gavage group: fed on high-fat diet, dosed with 10 mg NMN/kg body weight and 1 mg NR/kg body weight by gavage every day from week 7, and allowed to free access to water during experiment.
(8) NMN+NR injection group: fed on high-fat diet, dosed with 10 mg NMN/kg body weight and 5 mg NR/kg body weight by intramuscular injection every day from week 7, and allowed to free access to water during experiment.
The formulation of the high-fat diet includes 83% basal diet, 2% cholesterol, and 15% lard oil.
At the end of week 10, all the experimental animals was fasted (allowed to access to water) for 12 hrs and then sacrificed. The aorta was isolated, dissected longitudinally along the midline of the anterior wall, and stained with Sudan IV. […] The lesion area pathologically measured and the total endangium area were quantified, and the degree of arteriosclerosis was expressed by percentages of the lesion area relative to the total endangium area of the aorta.
Statistical analysis: All the experimental data is analyzed by SPSS13.0 Statistics software. The measurement data is expressed as x±s, and t test is applied to check the statistical significance. Where P<0.05, there is statistical significance.

[2] = tested on: patients having cardio-cerebrovascular diseases resulting from arteriosclerosis; test: Clinical trial in patients with cardio-cerebrovascular diseases resulting from arteriosclerosis; type: in vivo, human; conditions: for Total effective rate: excluding the withdrawing patients
Source text: 300 patients (male:female 1:1, aged 35-78 years and 57.5 years on average, and having a course of disease of the shortest 1.5 years, the longest 7 years, and 4.6 years on average) diagnosed as having cardio-cerebrovascular diseases resulting from arteriosclerosis were selected at random as subjects for clinical observation. The patients were assigned to a group A, a group B, and a group C at random, each group having 100 patients.
Group A: The patients were orally administered with NMN at a dosage of 10 mg/kg body weight before or after meals every day, and the diet was controlled as desired.
Group B: The patients were orally administered with NMN at a dosage of 10 mg/kg body weight and with NR at a dosage of 2 mg/kg body weight before or after meals every day, and the diet was controlled as desired.
Group C: The patients were intramusculary injected with NMN at a dosage of 10 mg/kg body weight and with NR at a dosage of 3 mg/kg body weight before or after meals every day, and the diet was controlled as desired.
(1) Obvious effectiveness: The health is built up, the body is powerful, the blood lipid and blood pressure drop to normal levels, the palpitation, chest pain, chest tightness, headache, dizziness, decreased vision, decreased memory, insomnia and dreamful sleep, and other clinical symptoms are obvious alleviated.
(2) Effectiveness: The health is built up, the blood lipid and blood pressure drop slightly, the palpitation, chest pain, chest tightness, headache, dizziness, decreased vision, decreased memory, insomnia and dreamful sleep, and other clinical symptoms are alleviated to some extent.
(3) Ineffectiveness: There is no obvious improvement in the clinical symptoms.

[3] = Group A: oral NMN 10 mg/kg every day, after 1 month
[4] = Group A: oral NMN 10 mg/kg every day, after 1 month, 100 patients

NC(=O)c1ccc[n+]([C@@H]2O[C@H](COP(=O)([O-])O)[C@@H](O)[C@H]2O)c1 [NMN, β-nicotinamide mononucleotide]
Rate of lesion area of aorta (%) ([1]; high fat prevention group: high-fat diet, 10 mg NMN/kg body weight by gavage every day, end of week 10, x±s): 13 ± 2% | Rate of lesion area of aorta (%) ([1]; high-dose: high-fat diet, 20 mg NMN/kg by gavage every day from week 7, end of week 10, x±s): 18 ± 4% | Rate of lesion area of aorta (%) ([1]; low-dose: high-fat diet, 0.1 mg NMN/kg by gavage every day from week 7, end of week 10, x±s): 58 ± 5% | Rate of lesion area of aorta (%) ([1]; medium-dose: high-fat diet, 10 mg NMN/kg by gavage every day from week 7, end of week 10, x±s): 27 ± 3% | Time after administration at which patients with mild disease are cured ([2]; Group A: oral NMN 10 mg/kg body weight every day): 7 days | Patients showing obvious effectiveness [2, 3]: 67 out of 100 patients | Patients showing effectiveness [2, 4]: 28 patients | Patients showing ineffectiveness [2, 4]: 4 patients | Total effective rate [2, 3]: 96% | Total effective rate ([2]; Group A: oral NMN 10 mg/kg every day, after 1 month, listed as β-nicotinamide mononucleotide): up to 96%
